# Data as given in patent publication US20110124715A1, “Antiviral Oligonucleotides Having a Conserved G4 Core Sequence” (priority 1992, published 2011).
# Values joined by “and” are separate entries in the source; they are usually repeats but may differ in a detail not shown here. Equal values may be shown once. Read-outs that look alike come from different tables or passages of the source. Marks after values point to notes of the source that are not given here. Strand notation (5' to 3'): a small letter for the sugar, then the base; units joined by * are phosphorothioate-linked, units joined directly phosphodiester-linked; [ ] holds rarer units or linkages, { } end groups; capitals alone tell only the bases. [I] = hypoxanthine (inosine); d = 2'-deoxy (DNA)
# What was measured:
# HSV-1 (KOS) = experiment: HSV-1 infection ELISA assay; type: cell-based, herpes simplex virus
# HIV-1IIIB [1] = tested on: HIV-1IIIB
# HIV-1IIIB [2] = experiment: Acute HIV infection assay (XTT, CEM cells); conditions: Table 3; for IC50: inhibition of HIV
# [3] = tested on: human T-lymphoblastoid CEM cell line
# HIV-1 = conditions: Table 16, acute HIV assay
# [4] = Fraction tetramer by size exclusion chromatography; type: physicochemical; conditions: Table 16; asterisk = more than one aggregate species
# [5] = molecular target: T1, human type II phospholipase A2 (Homo sapiens, UniProt P14555); experiment: Phospholipase A2 assay, 3H-oleic acid labelled E. coli substrate; type: biochemical
# T1 sequence (P14555 21-144): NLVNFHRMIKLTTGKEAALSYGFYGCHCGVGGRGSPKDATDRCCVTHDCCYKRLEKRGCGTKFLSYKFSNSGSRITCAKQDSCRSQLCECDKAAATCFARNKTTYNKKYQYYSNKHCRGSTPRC
# [6] = Table 12, inosine-substituted oligonucleotides against HSV
# [7] = Table 1, 50% inhibition of HSV replication relative to control infected cells
# [8] = Table 5, 1 μM, two separate experiments
compound,measurement,setting,value
GGGGGGTG [ISIS 5684],ED50,HSV-1 (KOS); b190,approximately 0.6 μM
"4925 (GTTGGAGACCGGNGTTGGNG; DNA, [I] at 13, 19, backbone not given here) [compound 4925]",EC50,HSV-1 (KOS); [6],1.6 µM
5676 (DNA dG*dG*dG*dG*dT*dT*dG*dG*dG*dG*dT*dT*dG*dG*dG*dG) [compound 5676],TI (TC50/IC50),HIV-1IIIB [1],114
"5653 (TTGGGGTTGGGGTTGGGG; phosphorothioate, further chemistry not given here) [compound 5653]",IC50,HIV-1IIIB [2],0.19 µM
same,TC50,[3],27 µM
"5666 (DNA TTGGGGTTGGGGTTGGGG; phosphodiester, further chemistry not given here) [compound 5666]",TI (TC50/IC50),HIV-1IIIB [1],100
ToToGsGsGsGoToT,IC50,HIV-1,inactive
same,% tetramer,[4],72%
"5296 (GTTGGAGACCGGGGTTGGNG; DNA, [I] at 19, backbone not given here) [compound 5296]",EC50,HSV-1 (KOS); [6],0.8 µM
"5295 (GTTGGAGACCGGGNTTGGGG; DNA, [I] at 14, backbone not given here) [compound 5295]",EC50,HSV-1 (KOS); [6],> 3 µM
5668 (DNA TTGGGGTTGGGG; unmodified DNA) [compound 5668],IC50,HIV-1IIIB [2],> 21 µM
same,TC50,[3],5.2 µM
5670 (DNA GGGGTTGGGGTTGGGGTTGGGG; unmodified DNA) [compound 5670],EC50,HSV-1 (KOS); [7],> 3 µM
same,TC50,[3],15 µM
TsToGsGoGsGoTsT,IC50,HIV-1,5.3 µM
same,% tetramer,[4],83%
α-ToToGoGoGoGoToT,IC50,HIV-1,inactive
same,% tetramer,[4],97%
TT GGGG TT [ISIS 5671],IC50,HIV-1; listed as ToToGoGoGoGoToT,inactive
"5309 (GTTGGAGACCGNGTTGGGG; inosine substitution, further chemistry not given here) [compound 5309]",EC50,HSV-1 (KOS); [6],> 3 µM
5667 (DNA TTGGGGTTGGGGTT; unmodified DNA) [compound 5667],IC50,HIV-1IIIB [2],> 22 µM
same,TC50,[3],5.6 µM
"5366 (TTGGGGTTGGGGTTGGGGTTGGGGG; phosphorothioate, further chemistry not given here) [compound 5366]",TI (TC50/IC50),HIV-1IIIB [2],220
same,TC50,[3],22 µM
"5590 (GGGGTTGGGG; phosphodiester, further chemistry not given here) [compound 5590]",IC50,HIV-1IIIB [2],> 25 µM
same,EC50,HSV-1 (KOS); [7],> 3 µM
same,TC50,[3],20 µM
"GCCGAGGTCCATGTCGTACGC (GCCGAGGTCCATGTCGTACGC; chemistry not given here) [ISIS 1082, negative control oligonucleotide complementary to HSV UL13 translation initiation codon; has no runs of G, reference compound]",EC50,"HSV-1 (KOS); b150, duplicate experiments",2.5 µM and 1.8 µM
GsGsGsGsTsT,IC50,HIV-1,0.5 µM
same,% tetramer,[4],94* %
"5310 (GTTGGAGACCGGGGTTGGGN; DNA, [I] at 20, backbone not given here) [compound 5310]",EC50,HSV-1 (KOS); [6],0.4 µM
α-TsTsGsGsGsGsTsT,IC50,HIV-1,0.5 µM
same,% tetramer,[4],98%
3196 (dG*dG*dG*dT*dG*dG*dG*dT*dA*dT*dA*dG*dA*dA*dG*dG*dG*dC*dT*dC*dC) [compound 3196],% Inhibition (1 μM),"[5]; Table 4, 1 μM",98.5%
same,% Inhibition (1 μM),[5]; [8],100% and 76.2%
4947 (dA*dG*dG*dT*dG*dG*dG*dT*dA*dT*dA*dG) [compound 4947],% Inhibition (1 μM),[5]; [8],22.7%
"ISIS 1573: phosphorothioate deoxyoligonucleotide, SEQ ID NO: 120 (DNA dG*dA*dG*dG*dC*dT*dG*dA*dG*dG*dT*dG*dG*dG*dA*dG*dG*dA)",inhibition of phospholipase A2,[5]; concentrations as high as 10 μM,did not significantly inhibit
"Nc1nc2c(ncn2COCCO)c(=O)[nH]1 [ACV, 9-(2-hydroxyethoxymethyl) guanine, reference compound]",activity against HSV-1,HSV-1 (KOS); FIG. 8 and FIG. 9,"more active than a control oligonucleotide, ISIS 3383"
3181 (antisense dT*dC*dT*dG*dC*dC*dC*dC*dG*dG*dC*dC*dG*dT*dC*dG*dC*dT*dC*dC*dC) [compound 3181],% Inhibition (1 μM),"[5]; Table 4, 1 μM",42.7%
3193 (dC*dC*dT*dG*dC*dA*dG*dT*dA*dG*dG*dC*dC*dT*dG*dG*dA*dA*dG*dG*dA) [compound 3193],% Inhibition (1 μM),"[5]; Table 4, 1 μM",22.6%
3630 (dT*dC*dT*dC*dA*dT*dA*dC*dC*dC*dT*dC*dC*dC*dT*dC*dC*dC*dT*dA*dC) [compound 3630],% Inhibition (1 μM),"[5]; Table 4, 1 μM",17.6%
GsGsGsGsT,IC50,HIV-1,1.4 µM
same,% tetramer,[4],61* %
TGG GG [ISIS 5544],IC50,HIV-1,inactive
same,% tetramer,[4],57* %
same,inhibition of enzyme activity,[5]; 1 μM,50%
same,inhibition of enzyme activity,[5]; 3 μM,complete inhibition
GG GG [ISIS 4803],% tetramer,[4],29* %
ToTsGoGsGoGsToT,IC50,HIV-1,inactive
same,% tetramer,[4],9%
3665 (dG*dG*dA*dC*dT*dG*dG*dC*dC*dT*dA*dG*dC*dT*dC*dC*dT*dC*dT*dG*dC) [compound 3665],% Inhibition (1 μM),"[5]; Table 4, 1 μM",45.8%
3663 (dC*dT*dC*dT*dG*dC*dT*dG*dG*dG*dT*dG*dG*dT*dC*dT*dC*dA*dA*dC*dT) [compound 3663],% Inhibition (1 μM),"[5]; Table 4, 1 μM",16.3%
4956 (dG*dG*dG*dC*dG*dG*dG*dT*dA*dT*dA*dG) [compound 4956],% Inhibition (1 μM),[5]; [8],92.0%
4133 (dA*dG*dT*dG*dC*dA*dC*dG*dT*dT*dG*dA*dG*dT*dA*dT*dG*dT*dG*dA*dG) [compound 4133],% Inhibition (1 μM),"[5]; Table 4, 1 μM",37.3%
3659 (dT*dG*dC*dT*dC*dC*dT*dC*dC*dT*dT*dG*dG*dT*dG*dG*dC*dT*dC*dT*dC) [compound 3659],% Inhibition (1 μM),"[5]; Table 4, 1 μM",38.2%
3477 (dG*dT*dG*dG*dA*dG*dG*dA*dG*dA*dG*dC*dA*dG*dT*dA*dG*dA*dA*dG*dG) [compound 3477],% Inhibition (1 μM),"[5]; Table 4, 1 μM",54.7%
3474 (dA*dT*dA*dG*dA*dA*dG*dG*dG*dC*dT*dC*dC*dT*dG*dC*dC*dT*dG*dG*dC) [compound 3474],% Inhibition (1 μM),"[5]; Table 4, 1 μM",13.3%
3631 (dA*dG*dG*dT*dC*dG*dA*dG*dG*dA*dG*dT*dG*dG*dT*dC*dT*dG*dA*dG*dC) [compound 3631],% Inhibition (1 μM),"[5]; Table 4, 1 μM",20.7%
TT GGGG [ISIS 5739],IC50,HIV-1,13 µM
same,% tetramer,[4],40* %
3182 (antisense dC*dA*dG*dA*dG*dG*dA*dC*dT*dC*dC*dA*dG*dA*dG*dT*dT*dG*dT*dA*dT) [compound 3182],% Inhibition (1 μM),"[5]; Table 4, 1 μM",30.2%
"5652 (TTGGGGTTGGGGTTGGGGTT; phosphorothioate, further chemistry not given here) [compound 5652]",TI (TC50/IC50),HIV-1IIIB [2],227
3629 (dC*dA*dC*dC*dC*dC*dT*dC*dG*dT*dT*dG*dC*dT*dG*dA*dG*dT*dC*dC*dC) [compound 3629],% Inhibition (1 μM),"[5]; Table 4, 1 μM",20.5%
4149 (dC*dT*dA*dC*dG*dG*dC*dA*dG*dA*dG*dA*dC*dG*dA*dG*dA*dT*dA*dG*dC) [compound 4149],% Inhibition (1 μM),"[5]; Table 4, 1 μM",20.2%
3476 (dG*dC*dT*dG*dG*dA*dA*dA*dT*dC*dT*dG*dC*dT*dG*dG*dA*dT*dG*dT*dC) [compound 3476],% Inhibition (1 μM),"[5]; Table 4, 1 μM",43.4%
5677 (DNA dG*dG*dG*dG*dT*dT*dG*dG*dG*dG*dT*dT*dG*dG*dG*dG*dT*dT*dG*dG*dG*dG) [compound 5677],TI (TC50/IC50),HIV-1IIIB [1],146
"3185 (antisense CAAAGATCATGATCACTGCCA; phosphorothioate, chemistry not fully specified) [compound 3185]",% Inhibition (1 μM),"[5]; Table 4, 1 μM",22.7%
3470 (dG*dT*dA*dG*dG*dG*dA*dG*dG*dG*dA*dG*dG*dG*dT*dA*dT*dG*dA*dG*dA) [compound 3470],% Inhibition (1 μM),"[5]; Table 4, 1 μM",88.9%
GTAGGGAGGGAGGGTATGAGA (dG*dT*dA*dG*dG*dG*dA*dG*dG*dG*dA*dG*dG*dG*dT*dA*dT*dG*dA*dG*dA) [ISIS 3470],inhibition of enzyme activity,[5]; 1 μM,completely inhibited
3688 (dT*dG*dG*dC*dC*dT*dC*dA*dC*dC*dG*dA*dT*dC*dC*dG*dT*dT*dG*dC*dA) [compound 3688],% Inhibition (1 μM),"[5]; Table 4, 1 μM",43.1%
3633 (dG*dT*dA*dG*dG*dG*dA*dT*dG*dG*dG*dA*dG*dT*dG*dA*dA*dG*dG*dA*dG) [compound 3633],% Inhibition (1 μM),"[5]; Table 4, 1 μM",58.5%
3479 (dC*dC*dG*dG*dA*dG*dT*dA*dC*dA*dG*dC*dT*dT*dC*dT*dT*dT*dG*dG*dT) [compound 3479],% Inhibition (1 μM),"[5]; Table 4, 1 μM",42.3%
5674 (DNA dT*dT*dG*dG*dG*dG*dT*dT*dG*dG*dG*dG) [compound 5674],TC50,[3],>200 µM
"5297 (CACGAAAGGCATGACCGNGGC; DNA, [I] at 18, backbone not given here) [compound 5297]",EC50,HSV-1 (KOS); [6],> 3 µM
3676 (dA*dG*dC*dT*dC*dT*dT*dA*dC*dC*dA*dA*dA*dG*dA*dT*dC*dA*dT*dG*dA) [compound 3676],% Inhibition (1 μM),"[5]; Table 4, 1 μM",24.5%
"5544 (GGGTGGGTATAG; phosphorothioate, further chemistry not given here) [compound 5544]",EC50,HSV-1 (KOS); [7],> 3 µM
same,% Inhibition (1 μM),[5]; [8],50%
4962 (dG*dG*dG*dT*dG*dG*dG*dT*dA*dT) [compound 4962],% Inhibition (1 μM),[5]; [8],36.3%
TsTsGoGoGoGsTsT,IC50,HIV-1,5 µM
same,% tetramer,[4],80%
3472 (dT*dG*dG*dG*dT*dG*dA*dG*dG*dG*dA*dT*dG*dC*dT*dT*dT*dC*dT*dG*dC) [compound 3472],% Inhibition (1 μM),"[5]; Table 4, 1 μM",69.0%
AGGTCGAGGAGTGGTCTGAGC (dA*dG*dG*dT*dC*dG*dA*dG*dG*dA*dG*dT*dG*dG*dT*dC*dT*dG*dA*dG*dC) [ISIS 3631],I.C.50 relative to ISIS 3196,"[5]; b86, fold higher",approximately 10 fold
